We go through 4 compounds from patent US7888042B2, “Methods for identifying insulin mimetics” (Ohio University, priority 2005, dated 2011).

Common to all, as to type: cell-based
Assay [1] relates to 3T3-L1 adipocytes. As to the kind of experiment: Glucose uptake assay in 3T3-L1 adipocytes. The protocol:
Chemical synthesis yields both the α- and β-anomers of PGG. (B) Glucose transport stimulatory activity (13, 14) of PGG was assessed by incubating adipocytes in 6-well plates with insulin or PGG for 15 min followed by the addition of [^3H]-2-deoxy-D-glucose for 10 min before quantifying uptake (13, n=3, mean±SD, Two way-ANOVA, * P<0.05; ** P<0.01). α-PGG (●); β-PGG (□); insulin (∘). (C) Glucose transport induced by insulin in the presence of α-PGG. One […] of insulin was added to adipocytes in the presence of increasing amounts of α-PGG. After induction, radioactive glucose was added, and the glucose taken up by the cells was counted.
Reagents, compound synthesis, and glucose uptake assay. Bovine insulin was purchased from Sigma. PGG, in an approximate 1:1 mixture of α- and β-PGG, was synthesized from glucose in the non-radioactive form as described (22). The identity of the compounds was confirmed by MS and NMR. The compounds were dissolved in double distilled water (ddH2O), filter sterilized, and stored as a 10 mM aqueous stock solution at −20° C. The stock solutions were diluted to final concentrations with sterile ddH2O. Glucose uptake assays in 3T3-L1 adipocytes induced by PGG were performed as described (13).

The subject of a further assay is GLUT4. As to the kind of experiment: GLUT4 translocation, confocal microscopy. As to conditions: adipocytes, 37° C., 15 min. Here is the method:
(§1) (A) Glucose transport was measured by determining [^3H]-2-deoxyglucose uptake stimulated by either insulin or α-PGG in 3T3-L1 cells in the presence or absence of HNMPA-(AM)3, an inhibitor of IR tyrosine kinase activity (24); wortmannin, an inhibitor of PI 3-kinase (25), or cytochalasin B, an inhibitor of GLUT4 (26), (n=4, mean±SD). (B) Cells were induced by 20 or 40 μM α-PGG or 100 nM insulin for 15 min. Cell lysates were separated by PAGE and analyzed for phosphorylation of IR (in CHO-IR cells) or Akt (in adipocytes) using antibodies specific to the target proteins. (C) Cells were treated with α-PGG and insulin in a fashion similar to (B) and assayed for their respective PI-3 kinase activity with a radioactive TLC method (27). (D) In similar experiments, intact cells were analyzed by confocal microscopy for translocation of GLUT4 using anti-GLUT4 antibodies.
Protein phosphorylation/activation and GLUT4 translocation. To investigate signal transduction induced by α-PGG, proteins from 3T3-L1 adipocytes or CHO-IR cells (23), which were treated with α-PGG or insulin for 15 min, were isolated, separated by PAGE, blotted on nylon membranes, and analyzed by Western blotting with antibodies against either IR or Akt. […]

In assay [2] the test system is 3T3-L1 adipocytes. As to the kind of experiment: Glucose uptake assay with insulin signaling pathway inhibitors. As to conditions: inhibitor added along with α-PGG. Here is the method: as §1
Insulin signaling pathway study with inhibitors. To identify the signaling pathway and its potential protein target for PGG's glucose transport activity, three inhibitors to the insulin signaling pathway were selected. […] Inhibitors were individually added to the 3T3-L1 adipocytes along with either α-PGG or insulin at predetermined concentrations during glucose uptake assays, and the inhibition was measured by the glucose taken in by the cell samples treated with or without inhibitors.

On to `O=C(OC[C@H]1OC(OC(=O)c2cc(O)c(O)c(O)c2)[C@H](OC(=O)c2cc(O)c(O)c(O)c2)[C@@H](OC(=O)c2cc(O)c(O)c(O)c2)[C@@H]1OC(=O)c1cc(O)c(O)c(O)c1)c1cc(O)c(O)c(O)c1` (stereo partly drawn) [PGG, 1,2,3,4,6-penta-O-galloyl-D-glucose], for which, in the assay with 3T3-L1 adipocytes [1], the “mode of action at IR for glucose transport activity” value is given as “partial agonist”.
In the case of “insulin: Bovine insulin purchased from Sigma”, the GLUT4 translocation entry in the assay with GLUT4 is “translocated to the plasma membrane”.
As for `O=C(OC[C@H]1O[C@@H](OC(=O)c2cc(O)c(O)c(O)c2)[C@H](OC(=O)c2cc(O)c(O)c(O)c2)[C@@H](OC(=O)c2cc(O)c(O)c(O)c2)[C@@H]1OC(=O)c1cc(O)c(O)c(O)c1)c1cc(O)c(O)c(O)c1` [β-PGG], in the assay on 3T3-L1 adipocytes [1] (3T3-L1 adipocytes, [3H]-2-deoxy-D-glucose uptake, 15 min incubation), the “induction of glucose transport” value was “induced glucose transport in adipocytes in a dose-dependent manner”.
`C=C1[C@@H](C)[C@H]2[C@H](Cc3ccccc3)NC(=O)[C@]23OC(=O)/C=C/[C@H](O)CCC[C@@H](C)C/C=C/[C@H]3[C@@H]1O` [cytochalasin B]: the “glucose transport activity induced by α-PGG in presence of inhibitor” value in the assay on 3T3-L1 adipocytes [2] is given as “completely abolished”.
